Earlier results, collected in publication PMC3853718 (Journal of Translational Medicine, 2013).
Like-named read-outs stand apart in the source and are kept apart here.

Key:
[1] = tested on: solid tumor patients; conditions: cited from earlier work
[2] = tested on: healthy volunteers; set-up: method as in PMID 17115157; conditions: single dose of 160 mg; cited from earlier work
[3] = tested on: patients; conditions: cited from earlier work; for toxicity: 1-hour infusion on days 1, 8, 15 in a 4-week cycle
[4] = tested on: nude mice; conditions: once-daily administration for 7 days in nude mice; cited from earlier work
[5] = tested on: mouse xenograft model; conditions: cited from earlier work

## O=C(NC1CCNCC1)c1[nH]ncc1NC(=O)c1c(Cl)cccc1Cl [AT7519]
[1]; patient with metastatic NSCLC
  objective responses: one PR

## Cc1ncc(-c2ccnc(Nc3ccc(S(C)(=O)=O)cc3)n2)n1C(C)C [AZD5438]
[1]; 3 phase 1 trials
  objective responses: No responses
[2]
  DLT: nausea and vomiting
[3]; 40 mg four times a day, continuous daily dosing schedules, advanced solid tumors
  tolerability: not tolerated

## CC(=O)c1c(C)c2cnc(Nc3ccc(N4CCNCC4)cn3)nc2n(C2CCCC2)c1=O [PD0332991]
[1]; patient with testicular cancer among 33 patients
  objective responses: one PR
[3]
  DLTs: neutropenia

## CN1CC[C@H](c2c(O)cc(O)c3c(=O)cc(-c4ccccc4Cl)oc23)[C@H](O)C1 [flavopiridol]
[1]; 55 patients, 1-hour daily infusion for 5 days, 3 days, or 1 day in a 21-day cycle
  objective responses: No objective responses
[1]; 72-hour continuous infusion every 2 weeks, study of 76 patients, patient with renal cancer
  objective responses: one PR
[1]; 72-hour continuous infusion every 2 weeks, trial of 38 patients, patient with gastric cancer
  objective responses: one CR
[3]; 72-hour continuous infusion trials
  dose-limiting toxicity: dose-limiting diarrhea
[3]; daily 1-hour infusion schedule
  dose-limiting toxicity: dose-limiting neutropenia
[4]
  maximum tolerated dose, defined as the dose associated with 20% weight loss: < 10 mg/kg
[5]
  minimum effective dose, defined as >50% tumor growth inhibition: 10 mg/kg

## CC(C)CC(=O)Nc1[nH]nc2c1CN(C(=O)C1CCN(C)CC1)C2(C)C [PHA793887]
[1]; first-in-human study in solid tumor patients
  objective responses: did not show any objective responses
[3]; dose level of 66 mg/m^2, one patient
  toxicity: grade 4 hepatic failure
[3]; third dose level of 44 mg/m^2, one patient
  toxicity: fatal hepatorenal failure

## CC[C@H](CO)Nc1nc(NCc2ccccc2)c2ncn(C(C)C)c2n1 [seliciclib]
[1]; patient with hepatocellular carcinoma among 56 patients
  objective responses: one PR
[1]; separate trial
  objective responses: No responses
[3]; orally twice daily for 7 days of a 21-day schedule
  Dose-limiting toxicities: hypokalemia, hyponatremia, elevated gamma-glutamyl transferase, hyperglycemia, and vasculitic rash
